How the values were obtained:
[1] = target: T1, PI3K delta (Homo sapiens, UniProt O00329); test: PI3K delta kinase assay (Kinase-Glo luminescence); format: biochemical
T1 construct: for the full-length p110-d subunit are generated and fused by overlapping PCR; p85(iSH2) fusion partner (see partner chain) (N); His tag (C); made in house; host or cells: baculovirus; Tn5 (Trichoplusia ni) or TiniPro insect cells
Summary of the method: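 Lipid kinase activity of a His-tagged p110δ full-length/p85 iSH2 fusion (10 nM) toward bovine liver phosphatidylinositol (10 μg/mL) at 1 μM ATP, pH 7.5, 60 min, room temperature. ATP consumption is quantified by luciferase-based luminescence. Four-parameter logistic fitting gives IC50.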

[2] = target: T2, PI3K gamma (Homo sapiens, UniProt P48736); test: PI3K gamma kinase assay (Kinase-Glo luminescence); format: biochemical
T2 construct: His tag (C); made in house; host or cells: baculovirus (pVL1393); Tn5 or TiniPro insect cells; construct from Roger Williams lab, MRC LMB
Summary of the method: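 Luminescent ATP-depletion (Kinase-Glo) assay with 150 nM PI3Kγ, 1 μM ATP and 10 μg/mL phosphatidylinositol in 10 mM Tris-HCl pH 7.5, 3 mM MgCl2, 50 mM NaCl, 0.05% CHAPS, 1 mM DTT; 120 min at room temperature. Eight-point dilutions; IC50 by four-parameter logistic fit.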

[3] = system: S6 Ribosomal Protein phosphorylation Ser235/236 in TSC1 null mouse embryo fibroblast (MEF) cells; test: Reverse protein array assay, S6 Ribosomal Protein phosphorylation Ser235/236 in TSC1 null MEF cells; format: cell-based; details: 1 h, pS6 ribosomal protein Ser235/236, 60 minutes incubation, read-out: p-S6 IC50
Summary of the method: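 TSC1−/− MEFs, seeded and held ≥20 h at 37 °C/5% CO2, were exposed to 8-step serial compound dilutions (0.02% DMSO final; DMSO vehicle control) for 60 min at 37 °C. Cells were then lysed on ice for 10 min and lysates spotted onto reverse protein array chips.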

T1 sequence (O00329 with tags, fused parts or gaps limits assumed): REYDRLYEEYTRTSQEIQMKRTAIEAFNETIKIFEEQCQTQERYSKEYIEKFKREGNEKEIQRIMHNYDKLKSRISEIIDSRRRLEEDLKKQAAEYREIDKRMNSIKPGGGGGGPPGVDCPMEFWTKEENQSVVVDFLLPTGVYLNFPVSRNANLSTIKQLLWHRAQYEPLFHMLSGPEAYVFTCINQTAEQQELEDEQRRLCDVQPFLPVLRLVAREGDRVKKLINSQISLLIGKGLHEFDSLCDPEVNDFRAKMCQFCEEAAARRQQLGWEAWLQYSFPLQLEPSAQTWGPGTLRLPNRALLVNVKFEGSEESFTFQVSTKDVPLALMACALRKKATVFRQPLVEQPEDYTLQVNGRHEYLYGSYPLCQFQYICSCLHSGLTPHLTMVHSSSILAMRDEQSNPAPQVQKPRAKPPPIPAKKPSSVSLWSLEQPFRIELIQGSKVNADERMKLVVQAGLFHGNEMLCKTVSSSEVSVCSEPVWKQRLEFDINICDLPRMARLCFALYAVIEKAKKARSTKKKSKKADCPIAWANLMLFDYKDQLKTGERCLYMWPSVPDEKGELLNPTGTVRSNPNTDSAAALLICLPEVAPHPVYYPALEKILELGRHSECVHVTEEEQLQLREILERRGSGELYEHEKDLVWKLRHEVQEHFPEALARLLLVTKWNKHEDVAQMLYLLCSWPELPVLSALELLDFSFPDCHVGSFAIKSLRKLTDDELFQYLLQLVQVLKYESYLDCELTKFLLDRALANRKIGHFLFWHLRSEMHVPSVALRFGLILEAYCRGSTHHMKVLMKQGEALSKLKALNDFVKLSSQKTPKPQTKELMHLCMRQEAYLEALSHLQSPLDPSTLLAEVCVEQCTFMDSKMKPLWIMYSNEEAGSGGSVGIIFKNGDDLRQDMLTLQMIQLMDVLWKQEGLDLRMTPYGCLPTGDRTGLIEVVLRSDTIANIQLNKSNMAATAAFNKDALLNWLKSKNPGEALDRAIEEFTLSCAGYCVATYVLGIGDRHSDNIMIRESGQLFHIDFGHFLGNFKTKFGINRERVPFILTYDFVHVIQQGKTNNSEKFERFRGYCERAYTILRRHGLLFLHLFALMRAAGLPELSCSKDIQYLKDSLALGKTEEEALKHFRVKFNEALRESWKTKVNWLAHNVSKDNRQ
T2 sequence (P48736 144-1102 limits assumed): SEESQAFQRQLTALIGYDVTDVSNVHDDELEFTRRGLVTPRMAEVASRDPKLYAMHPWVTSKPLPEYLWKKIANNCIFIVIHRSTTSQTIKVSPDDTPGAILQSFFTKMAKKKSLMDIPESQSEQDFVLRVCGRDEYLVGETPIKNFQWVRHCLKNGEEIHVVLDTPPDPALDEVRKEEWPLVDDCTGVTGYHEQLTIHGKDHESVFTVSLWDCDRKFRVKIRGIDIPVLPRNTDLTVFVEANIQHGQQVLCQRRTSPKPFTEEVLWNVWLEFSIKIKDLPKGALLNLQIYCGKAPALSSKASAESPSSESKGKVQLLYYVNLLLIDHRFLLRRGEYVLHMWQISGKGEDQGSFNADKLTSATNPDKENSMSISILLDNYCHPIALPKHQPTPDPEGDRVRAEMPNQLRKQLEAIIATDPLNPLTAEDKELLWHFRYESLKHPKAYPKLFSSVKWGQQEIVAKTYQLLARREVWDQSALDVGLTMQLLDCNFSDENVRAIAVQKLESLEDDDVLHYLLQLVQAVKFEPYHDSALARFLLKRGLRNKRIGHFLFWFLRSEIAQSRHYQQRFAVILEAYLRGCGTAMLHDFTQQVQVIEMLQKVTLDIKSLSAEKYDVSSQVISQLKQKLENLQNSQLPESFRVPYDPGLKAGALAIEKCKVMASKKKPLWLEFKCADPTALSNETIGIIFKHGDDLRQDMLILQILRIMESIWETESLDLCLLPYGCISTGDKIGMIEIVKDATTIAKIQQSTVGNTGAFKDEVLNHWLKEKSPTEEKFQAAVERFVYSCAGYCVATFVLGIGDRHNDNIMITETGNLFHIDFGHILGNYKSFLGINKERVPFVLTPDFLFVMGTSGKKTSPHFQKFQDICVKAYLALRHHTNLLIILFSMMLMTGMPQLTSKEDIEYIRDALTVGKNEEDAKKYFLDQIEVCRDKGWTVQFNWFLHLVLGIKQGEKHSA

| SMILES | IC50 [1] | IC50 [2] | IC50 [3] |
| --- | --- | --- | --- |
| COc1ccc(-c2ccc3ncc4c(c3c2)n(-c2ccnn2C)c(=O)n4C)cc1OC [Example 1.3, 8-(3,4-Dimethoxy-phenyl)-3-methyl-1-(2-methyl-2H-pyrazol-3-yl)-1,3-dihydro-imidazo[4,5-c]quinolin-2-one] | 12 nM | 540 nM | – |
| COc1ccc(-c2ccc3ncc4c(c3c2)n(-c2cn(C(C)C)nc2C)c(=O)n4C)cn1 [Example 2.8, 1-(1-Isopropyl-3-methyl-1H-pyrazol-4-yl)-8-(6-methoxy-pyridin-3-yl)-3-methyl-1,3-dihydro-imidazo[4,5-c]quinolin-2-one] | 15 nM | 205 nM | 21 nM |
| COCCOc1ccc(-c2ccc3ncc4c(c3c2)n(-c2cn(C)nc2C)c(=O)n4C)cn1 [Example 18, 1-(1,3-Dimethyl-1H-pyrazol-4-yl)-8-[6-(2-methoxy-ethoxy)-pyridin-3-yl]-3-methyl-1,3-dihydro-imidazo[4,5-c]quinolin-2-one] | 115 nM | 397 nM | – |
| CCOc1cc(-c2ccc3ncc4c(c3c2)n(-c2c(C)nn(C)c2C)c(=O)n4C)ccc1OC [Example 28.2, 8-(3-Ethoxy-4-methoxy-phenyl)-3-methyl-1-(1,3,5-trimethyl-1H-pyrazol-4-yl)-1,3-dihydro-imidazo[4,5-c]quinolin-2-one] | 53 nM | 174 nM | – |
| COc1ncc(-c2ccc3ncc4c(c3c2)n(-c2cn(C)nc2C)c(=O)n4C)cc1[N+](=O)[O-] [Example 66, 1-(1,3-dimethyl-1H-pyrazol-4-yl)-8-(6-methoxy-5-nitro-pyridin-3-yl)-3-methyl-1,3-dihydro-imidazo[4,5-c]quinolin-2-one] | 19 nM | 356 nM | – |
| Cc1nn(C)cc1-n1c(=O)n(C)c2cnc3ccc(-c4cncc(N(C)S(C)(=O)=O)c4)cc3c21 [Example 121, N-{5-[1-(1,3-Dimethyl-1H-pyrazol-4-yl)-3-methyl-2-oxo-2,3-dihydro-1H-imidazo[4,5-c]quinolin-8-yl]-pyridin-3-yl}-N-methyl-methanesulfonamide] | 18 nM | 184 nM | – |
| CNc1cc(-c2ccc3ncc4c(c3c2)n(-c2cn(C)nc2C)c(=O)n4C)cnc1F [Example 150.2, 1-(1,3-Dimethyl-1H-pyrazol-4-yl)-8-(6-fluoro-5-methylamino-pyridin-3-yl)-3-methyl-1,3-dihydro-imidazo[4,5-c]quinolin-2-one] | 7 nM | – | 1 nM |
| CCNc1cc(-c2ccc3ncc4c(c3c2)n(-c2c(C)nn(C)c2C)c(=O)n4C)cnc1F [Example 154.1, 8-(5-Ethylamino-6-fluoro-pyridin-3-yl)-3-methyl-1-(1,3,5-trimethyl-1H-pyrazol-4-yl)-1,3-dihydro-imidazo[4,5-c]quinolin-2-one] | 37 nM | – | 3 nM |
| Cc1ncc(-c2ccc3ncc4c(c3c2)n(-c2cn(C)nc2C)c(=O)n4C)cc1N(C)C [Example 164, 8-(5-Dimethylamino-6-methyl-pyridin-3-yl)-1-(1,3-dimethyl-1H-pyrazol-4-yl)-3-methyl-1,3-dihydro-imidazo[4,5-c]quinolin-2-one] | 4 nM | – | 1 nM |
| CCNc1ncc(-c2ccc3ncc4c(c3c2)n(-c2cn(C)nc2C)c(=O)n4C)cc1COCC [Example 167, 1-(1,3-Dimethyl-1H-pyrazol-4-yl)-8-(5-ethoxymethyl-6-ethylamino-pyridin-3-yl)-3-methyl-1,3-dihydro-imidazo[4,5-c]quinolin-2-one] | 25 nM | – | 7 nM |
| CCn1cc(-n2c(=O)n(C)c3cnc4ccc(-c5cnc(N)c(COC)c5)cc4c32)c(C)n1 [Example 168.2, 8-(6-Amino-5-methoxymethyl-pyridin-3-yl)-1-(1-ethyl-3-methyl-1H-pyrazol-4-yl)-3-methyl-1,3-dihydro-imidazo[4,5-c]quinolin-2-one] | 11 nM | – | < 0.5 nM |
| Cc1ncc(-c2ccc3ncc4c(c3c2)n(-c2cn(C)nc2C)c(=O)n4C)cc1O [Example 185.1, 1-(1,3-Dimethyl-1H-pyrazol-4-yl)-8-(5-hydroxy-6-methyl-pyridin-3-yl)-3-methyl-1,3-dihydro-imidazo[4,5-c]quinolin-2-one] | 9 nM | – | 35 nM |
| Cc1nn(C)cc1-n1c(=O)n(C)c2cnc3ccc(-c4cnc(CO)c(OC(C)C)c4)cc3c21 [Example 190, 1-(1,3-Dimethyl-1H-pyrazol-4-yl)-8-(6-hydroxymethyl-5-isopropoxy-pyridin-3-yl)-3-methyl-1,3-dihydro-imidazo[4,5-c]quinolin-2-one] | 11 nM | – | 2 nM |
| COc1cc(-c2ccc3ncc4c(c3c2)n(-c2cn(C)nc2C)c(=O)n4C)cnc1CO [Example 193, 1-(1,3-Dimethyl-1H-pyrazol-4-yl)-8-(6-hydroxymethyl-5-methoxy-pyridin-3-yl)-3-methyl-1,3-dihydro-imidazo[4,5-c]quinolin-2-one] | 17 nM | – | 5.53 nM |
| COCc1ncc(-c2ccc3ncc4c(c3c2)n(-c2cn(C)nc2C)c(=O)n4C)cc1OC [Example 195.1, 1-(1,3-Dimethyl-1H-pyrazol-4-yl)-8-(5-methoxy-6-methoxymethyl-pyridin-3-yl)-3-methyl-1,3-dihydro-imidazo[4,5-c]quinolin-2-one] | 14 nM | – | 5 nM |
| COCc1ncc(-c2ccc3ncc4c(c3c2)n(-c2cn(C(C)C)nc2C)c(=O)n4C)cc1OC [Example 195.2, 1-(1-Isopropyl-3-methyl-1H-pyrazol-4-yl)-8-(5-methoxy-6-methoxymethyl-pyridin-3-yl)-3-methyl-1,3-dihydro-imidazo[4,5-c]quinolin-2-one] | 35 nM | – | 31 nM |
| CCn1cc(-n2c(=O)n(C)c3cnc4ccc(-c5cnc(COC)c(OC)c5)cc4c32)c(C)n1 [Example 195.3, 1-(1-Ethyl-3-methyl-1H-pyrazol-4-yl)-8-(5-methoxy-6-methoxymethyl-pyridin-3-yl)-3-methyl-1,3-dihydro-imidazo[4,5-c]quinolin-2-one] | 34 nM | – | 31 nM |
| [2H]C([2H])([2H])OCc1ncc(-c2ccc3ncc4c(c3c2)n(-c2cn(C)nc2Cl)c(=O)n4C)cc1OC [Example 199, 1-(3-Chloro-1-methyl-1H-pyrazol-4-yl)-8-(5-methoxy-6-trideuteromethoxymethyl-pyridin-3-yl)-3-methyl-1,3-dihydro-imidazo[4,5-c]quinolin-2-one] | 5 nM | – | 2 nM |
| COCc1cc(-c2ccc3ncc4c(c3c2)n(-c2cn(C)nc2C)c(=O)n4C)cnc1OC [Example 202, 1-(1,3-Dimethyl-1H-pyrazol-4-yl)-8-(6-methoxy-5-methoxymethyl-pyridin-3-yl)-3-methyl-1,3-dihydro-imidazo[4,5-c]quinolin-2-one] | 6 nM | – | 1 nM |
| Cc1nn(C)cc1-n1c(=O)n(C)c2cnc3ccc(-c4cnc5c(c4)OCCN5C)cc3c21 [Example 209, 1-(1,3-Dimethyl-1H-pyrazol-4-yl)-3-methyl-8-(4-methyl-3,4-dihydro-2H-pyrido[3,2-b][1,4]oxazin-7-yl)-1,3-dihydro-imidazo[4,5-c]quinolin-2-one] | 9 nM | – | 2 nM |
| Cc1nn(C)cc1-n1c(=O)n(C)c2cnc3ccc(-c4cncc(C(C)(C)O)c4)cc3c21 [Example 215.2, 1-(1,3-Dimethyl-1H-pyrazol-4-yl)-8-[5-(1-hydroxy-1-methyl-ethyl)-pyridin-3-yl]-3-methyl-1,3-dihydro-imidazo[4,5-c]quinolin-2-one] | 11 nM | – | 3 nM |
| Cc1nn(C)cc1-n1c(=O)n(C)c2cnc3ccc(-c4cncc(C5(O)CCCC5)c4)cc3c21 [Example 218, 1-(1,3-Dimethyl-1H-pyrazol-4-yl)-8-[5-(1-hydroxy-cyclopentyl)-pyridin-3-yl]-3-methyl-1,3-dihydro-imidazo[4,5-c]quinolin-2-one] | 6 nM | – | < 0.5 nM |
| Cc1nn(C)cc1-n1c(=O)n(C)c2cnc3ccc(-c4cncc(C(C)(C)C#N)c4)cc3c21 [Example 220.1, 2-{5-[1-(1,3-Dimethyl-1H-pyrazol-4-yl)-3-methyl-2-oxo-2,3-dihydro-1H-imidazo[4,5-c]quinolin-8-yl]-pyridin-3-yl}-2-methyl-propionitrile] | 8 nM | – | 1 nM |
| CNC(=O)c1cc(-c2ccc3ncc4c(c3c2)n(-c2cn(C(C)C)nc2C)c(=O)n4C)cnc1N [Example 224.2, 2-Amino-5-[1-(1-isopropyl-3-methyl-1H-pyrazol-4-yl)-3-methyl-2-oxo-2,3-dihydro-1H-imidazo[4,5-c]quinolin-8-yl]-N-methyl-nicotinamide] | 41 nM | – | 20 nM |
| COc1ncc(-c2ccc3ncc4c(c3c2)n(-c2cn(C)nc2C)c(=O)n4C)c(OC)n1 [Example 234.2, 8-(2,4-Dimethoxy-pyrimidin-5-yl)-1-(1,3-dimethyl-1H-pyrazol-4-yl)-3-methyl-1,3-dihydro-imidazo[4,5-c]quinolin-2-one] | < 3 nM | – | 1 nM |
